Literature values as cited in PMC8273902 (Drug Design, Development and Therapy, 2021).
Where two headings read alike, the source gives them in different places.

Conditions: humans

AUC0-t (20 mg)	CL/F (20 mg)	Cmax (20 mg)	Dose linearity	Food effect on PK properties	Food effect on PK properties (listed as tadalafil)	Compound	AUC0-t (100 mg)	Cmax (100 mg)	CL (CL, 50 mg, intravenous)	Food effect: reduction of AUC (systemic exposure) (high-fat meal) [%]	Tmax	Vd/F [L]	t1/2 [h]
						CCCc1nn(C)c2c(=O)[nH]c(-c3cc(S(=O)(=O)N4CCN(C)CC4)ccc3OCC)nc12 [Sildenafil, sildenafil]	1685 (100 mg) h·ng/mL	560 (100 mg) ng/mL	41 (CL, 50 mg, intravenous) L/h	11	1 (0.5–2) h	>310	3 to 5
8066 (20 mg) h·ng/mL	2.5 (20 mg) L/h	378 (20 mg) ng/mL	Linear	No significant effect	not affected by food	CN1CC(=O)N2[C@H](c3ccc4c(c3)OCO4)c3[nH]c4ccccc4c3C[C@@H]2C1=O [Tadalafil, tadalafil]					2 (0.5–6) h	60 to 70	
